The values below come from patent US10844077B2, “Thiazolyl-containing compounds for treating proliferative diseases” (Dana-Farber Cancer Institute, Inc., priority 2014, dated 2020).

Type in all cases: cell-based
For experiment [1], the target named is kinases in BCWM.1 cells (Homo sapiens, UniProt Q04759). The following applies: PKCt; ATP Loop; 1 μM, 90 min; GF. As for the experimental part: (§1) The cells were harvested and lysed. […] Bound kinases were identified and quantitated by ACTIVX as described in Patricelli et al., Biochemistry, 2007, 46(2): 350-358. The compounds were tested in duplicates against duplicate or quadruplicate control samples.

Experiment [2] addresses kinases in BCWM.1 cells (Homo sapiens, UniProt O00418). Particulars: eEF2K; ATP; 1 μM; GF. As to the method:
as §1

The target of experiment [3] is kinases in BCWM.1 cells (Homo sapiens, UniProt P11802). The following applies: CDK4; Lys2; 1 μM; GF. As to the method:
as §1

Experiment [4] deals with kinases in BCWM.1 cells (Homo sapiens, UniProt P27448). The following applies: MARK3; Lys1; 1 μM; GF. As to the method:
as §1

The target in experiment [5] is kinases in BCWM.1 cells (Homo sapiens, UniProt Q96RR4). Particulars: CaMKK2; Lys2; 1 μM; GF. As for the experimental part:
as §1

Experiment [6] has as its target kinases in BCWM.1 cells (Homo sapiens, UniProt P06239). The following applies: LCK; Activation Loop; 1 μM; GF. As for the experimental part:
as §1

In experiment [7] the target is kinases in BCWM.1 cells (Homo sapiens, UniProt Q9NWZ3). Particulars: IRAK4; Lys2; 1 μM; GF. As for the experimental part:
as §1

Experiment [8] deals with kinases in BCWM.1 cells (Homo sapiens, UniProt O95382). The following applies: MAP3K6; Lys2; 1 μM; GF. As to the method:
as §1

Experiment [9] deals with kinases in BCWM.1 cells (Homo sapiens, UniProt Q5TCX8). Particulars: MLK4; Lys2; 1 μM; GF. As for the experimental part:
as §1

Experiment [10] addresses kinases in BCWM.1 cells (Homo sapiens, UniProt P19784). The following applies: CK2a2; Lys2; 1 μM; GF. As for the experimental part:
as §1

Experiment [11] addresses kinases in BCWM.1 cells (Homo sapiens, UniProt O94804). The following applies: LOK; Lys2; 1 μM; GF. As to the method:
as §1

For experiment [12], the target named is kinases in BCWM.1 cells (Homo sapiens, UniProt Q13418). Particulars: ILK, 1 μM, GF. As for the experimental part:
as §1

Experiment [13] deals with kinases in BCWM.1 cells (Homo sapiens, UniProt Q9Y6E0). Particulars: MST3; Lys2; 1 μM; GF. As to the method: as §1
The target in experiment [14] is kinases in BCWM.1 cells (Homo sapiens, UniProt Q9Y2U5). Particulars: MAP3K2; Lys1; 1 μM; GF. As for the experimental part:
as §1

Experiment [15] deals with kinases in BCWM.1 cells (Homo sapiens, UniProt Q5S007). Particulars: LRRK2; Lys2; 1 μM; GF. As for the experimental part:
as §1

For experiment [16], the target named is kinases in BCWM.1 cells (Homo sapiens, UniProt O14920). Particulars: IKKb; Lys2; 1 μM; GF. As for the experimental part: as §1
For experiment [17], the target named is kinases in BCWM.1 cells (Homo sapiens, UniProt Q14004). As to the method:
as §1

Experiment [18] deals with kinases in BCWM.1 cells (Homo sapiens, UniProt Q8TCG2). The following applies: PI4K2B; ATP; 1 μM, 90 min; GF. As to the method: as §1
Experiment [19] addresses kinases in BCWM.1 cells (Homo sapiens, UniProt P15056). Particulars: BRAF; Lys2; 1 μM; GF. As for the experimental part: as §1
In experiment [20] the target is kinases in BCWM.1 cells (Homo sapiens, UniProt O75582). Particulars: MSK1 domain1; Lys2; 1 μM; GF. As to the method:
as §1

Experiment [21] concerns the target kinases in BCWM.1 cells (Homo sapiens, UniProt O14936). The following applies: CASK; Lys1; 1 μM; GF. As to the method: as §1
Experiment [22] concerns the target kinases in BCWM.1 cells (Homo sapiens, UniProt Q9UK32). Particulars: RSK4 domain1; Lys2; 1 μM, 90 min; GF. As to the method:
as §1

Experiment [23] concerns the target kinases in BCWM.1 cells (Homo sapiens, UniProt P41279). The following applies: COT; ATP Loop; 1 μM; GF. As to the method:
as §1

The target in experiment [24] is kinases in BCWM.1 cells (Homo sapiens, UniProt O00506). The following applies: YSK1; Lys1; 1 μM, 90 min; GF. As for the experimental part: as §1
Experiment [25] has as its target kinases in BCWM.1 cells (Homo sapiens, UniProt O14976). Particulars: GAK; Lys2; 1 μM; GF. As for the experimental part:
as §1

Experiment [26] concerns the target kinases in BCWM.1 cells (Homo sapiens, UniProt P07332). Particulars: FES; Lys1; 1 μM; GF. As for the experimental part:
as §1

The target of experiment [27] is kinases in BCWM.1 cells (Homo sapiens, UniProt Q16659). The following applies: Erk3; Lys2; 1 μM; GF. As to the method: as §1
For experiment [28], the target named is kinases in BCWM.1 cells (Homo sapiens, UniProt P51451). Particulars: BLK; Activation Loop; 1 μM; GF. As for the experimental part: as §1
The target in experiment [29] is kinases in BCWM.1 cells (Homo sapiens, UniProt P17612). Particulars: PKACa; Lys2; 1 μM, 90 min; GF. As for the experimental part: as §1
The target in experiment [30] is kinases in BCWM.1 cells (Homo sapiens, UniProt Q9Y6R4). The following applies: MAP3K4; Lys2; 1 μM; GF. As to the method: as §1

Values joined by “and” are separate entries in the source; they are usually repeats but may differ in a detail not shown here. Equal entries are not always repeated. Where two headings read alike, the source gives them in different places.

Chain of kinases in BCWM.1 cells (Homo sapiens, UniProt P51451) (P51451 2-505 limits assumed): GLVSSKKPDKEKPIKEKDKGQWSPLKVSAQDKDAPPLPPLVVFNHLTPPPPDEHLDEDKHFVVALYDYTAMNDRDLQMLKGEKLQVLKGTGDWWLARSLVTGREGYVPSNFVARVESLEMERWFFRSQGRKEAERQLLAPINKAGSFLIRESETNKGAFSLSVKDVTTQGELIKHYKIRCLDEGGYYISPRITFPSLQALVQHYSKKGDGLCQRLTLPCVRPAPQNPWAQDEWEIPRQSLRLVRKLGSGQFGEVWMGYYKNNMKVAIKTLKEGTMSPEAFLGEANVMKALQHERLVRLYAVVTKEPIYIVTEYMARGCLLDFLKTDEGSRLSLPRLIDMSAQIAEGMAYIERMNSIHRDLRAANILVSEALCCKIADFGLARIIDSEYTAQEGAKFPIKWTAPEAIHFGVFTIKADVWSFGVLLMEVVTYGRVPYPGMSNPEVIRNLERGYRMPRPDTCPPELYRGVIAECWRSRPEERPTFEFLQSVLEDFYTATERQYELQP
Chain of kinases in BCWM.1 cells (Homo sapiens, UniProt P15056) (P15056 2-766 limits assumed): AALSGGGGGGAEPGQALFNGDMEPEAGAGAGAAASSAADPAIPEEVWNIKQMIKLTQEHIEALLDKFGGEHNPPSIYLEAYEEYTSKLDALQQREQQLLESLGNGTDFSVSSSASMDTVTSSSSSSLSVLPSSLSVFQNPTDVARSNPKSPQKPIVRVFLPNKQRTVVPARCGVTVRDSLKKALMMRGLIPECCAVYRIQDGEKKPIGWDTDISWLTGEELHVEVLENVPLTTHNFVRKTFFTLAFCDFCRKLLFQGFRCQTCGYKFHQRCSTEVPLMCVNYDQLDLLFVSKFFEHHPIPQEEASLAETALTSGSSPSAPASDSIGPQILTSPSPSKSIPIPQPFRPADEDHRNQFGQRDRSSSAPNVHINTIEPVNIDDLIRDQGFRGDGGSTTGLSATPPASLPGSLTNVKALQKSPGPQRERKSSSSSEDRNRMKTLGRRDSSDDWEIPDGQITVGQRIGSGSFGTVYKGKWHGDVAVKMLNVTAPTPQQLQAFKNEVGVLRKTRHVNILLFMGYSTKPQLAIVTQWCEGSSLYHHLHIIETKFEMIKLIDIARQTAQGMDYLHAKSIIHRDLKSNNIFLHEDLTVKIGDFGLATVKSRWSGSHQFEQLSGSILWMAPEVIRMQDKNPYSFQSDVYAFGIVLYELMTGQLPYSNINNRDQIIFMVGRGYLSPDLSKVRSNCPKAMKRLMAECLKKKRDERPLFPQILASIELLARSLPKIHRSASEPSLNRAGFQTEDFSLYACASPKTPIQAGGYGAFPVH
Chain of kinases in BCWM.1 cells (Homo sapiens, UniProt P06239) (P06239 2-509 limits assumed): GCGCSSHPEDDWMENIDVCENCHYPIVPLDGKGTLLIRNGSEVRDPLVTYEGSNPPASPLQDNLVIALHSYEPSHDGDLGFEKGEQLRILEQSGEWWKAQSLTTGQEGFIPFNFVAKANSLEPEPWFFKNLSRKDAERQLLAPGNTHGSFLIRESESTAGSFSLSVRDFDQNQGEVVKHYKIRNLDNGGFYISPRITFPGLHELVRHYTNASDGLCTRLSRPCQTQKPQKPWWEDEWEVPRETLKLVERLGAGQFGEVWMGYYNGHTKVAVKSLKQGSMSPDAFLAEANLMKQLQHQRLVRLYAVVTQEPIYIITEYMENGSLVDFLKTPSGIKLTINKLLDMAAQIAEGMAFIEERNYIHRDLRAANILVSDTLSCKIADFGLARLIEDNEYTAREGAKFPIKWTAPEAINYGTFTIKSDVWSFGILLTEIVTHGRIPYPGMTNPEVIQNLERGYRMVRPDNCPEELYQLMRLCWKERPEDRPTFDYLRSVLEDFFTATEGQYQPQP
Chain of kinases in BCWM.1 cells (Homo sapiens, UniProt Q96RR4) (Q96RR4 2-588 limits assumed): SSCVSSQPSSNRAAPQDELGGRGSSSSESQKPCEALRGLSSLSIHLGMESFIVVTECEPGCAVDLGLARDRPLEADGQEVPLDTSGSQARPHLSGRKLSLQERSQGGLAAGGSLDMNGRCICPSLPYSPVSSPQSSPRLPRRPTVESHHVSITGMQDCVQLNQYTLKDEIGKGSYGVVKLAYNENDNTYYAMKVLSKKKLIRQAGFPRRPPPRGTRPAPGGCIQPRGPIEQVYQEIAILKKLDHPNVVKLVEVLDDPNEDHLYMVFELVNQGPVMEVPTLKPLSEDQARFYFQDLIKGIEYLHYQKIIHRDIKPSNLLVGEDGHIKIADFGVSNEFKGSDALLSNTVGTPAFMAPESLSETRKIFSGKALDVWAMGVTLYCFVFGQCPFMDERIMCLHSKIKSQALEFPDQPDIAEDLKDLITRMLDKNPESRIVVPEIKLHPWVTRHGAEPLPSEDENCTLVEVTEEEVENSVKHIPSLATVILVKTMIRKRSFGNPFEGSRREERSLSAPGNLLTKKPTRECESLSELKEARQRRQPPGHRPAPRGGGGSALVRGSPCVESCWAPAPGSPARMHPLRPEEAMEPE
Chain of kinases in BCWM.1 cells (Homo sapiens, UniProt P11802) (P11802 2-303 limits assumed): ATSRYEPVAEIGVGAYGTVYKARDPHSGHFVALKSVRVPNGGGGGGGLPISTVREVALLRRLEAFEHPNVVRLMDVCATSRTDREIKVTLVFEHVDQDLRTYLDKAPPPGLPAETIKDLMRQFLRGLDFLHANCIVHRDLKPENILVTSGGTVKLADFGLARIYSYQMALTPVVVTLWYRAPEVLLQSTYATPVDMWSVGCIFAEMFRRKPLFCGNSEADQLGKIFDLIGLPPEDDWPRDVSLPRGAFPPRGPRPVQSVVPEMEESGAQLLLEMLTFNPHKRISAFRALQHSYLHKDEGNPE
Chain of kinases in BCWM.1 cells (Homo sapiens, UniProt O00418) (O00418 2-725 limits assumed): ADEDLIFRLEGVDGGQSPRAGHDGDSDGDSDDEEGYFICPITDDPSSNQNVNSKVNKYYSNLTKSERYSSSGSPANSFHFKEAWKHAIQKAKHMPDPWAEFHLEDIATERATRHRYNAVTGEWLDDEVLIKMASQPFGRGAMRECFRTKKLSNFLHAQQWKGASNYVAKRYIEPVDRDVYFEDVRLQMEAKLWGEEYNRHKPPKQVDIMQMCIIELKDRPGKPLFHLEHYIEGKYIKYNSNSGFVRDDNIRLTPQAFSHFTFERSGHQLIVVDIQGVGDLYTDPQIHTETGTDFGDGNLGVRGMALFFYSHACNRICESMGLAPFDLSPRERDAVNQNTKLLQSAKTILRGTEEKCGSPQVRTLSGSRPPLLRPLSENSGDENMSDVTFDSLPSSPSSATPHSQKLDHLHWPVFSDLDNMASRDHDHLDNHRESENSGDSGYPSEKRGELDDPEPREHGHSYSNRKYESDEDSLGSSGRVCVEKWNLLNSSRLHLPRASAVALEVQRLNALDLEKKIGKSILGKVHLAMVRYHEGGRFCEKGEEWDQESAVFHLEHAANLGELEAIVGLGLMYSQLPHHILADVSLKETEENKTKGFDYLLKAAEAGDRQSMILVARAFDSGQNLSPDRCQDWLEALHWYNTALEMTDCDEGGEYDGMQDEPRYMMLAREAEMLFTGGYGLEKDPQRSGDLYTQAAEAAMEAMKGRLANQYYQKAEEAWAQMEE
Chain of kinases in BCWM.1 cells (Homo sapiens, UniProt O14976) (O14976 2-1311 limits assumed): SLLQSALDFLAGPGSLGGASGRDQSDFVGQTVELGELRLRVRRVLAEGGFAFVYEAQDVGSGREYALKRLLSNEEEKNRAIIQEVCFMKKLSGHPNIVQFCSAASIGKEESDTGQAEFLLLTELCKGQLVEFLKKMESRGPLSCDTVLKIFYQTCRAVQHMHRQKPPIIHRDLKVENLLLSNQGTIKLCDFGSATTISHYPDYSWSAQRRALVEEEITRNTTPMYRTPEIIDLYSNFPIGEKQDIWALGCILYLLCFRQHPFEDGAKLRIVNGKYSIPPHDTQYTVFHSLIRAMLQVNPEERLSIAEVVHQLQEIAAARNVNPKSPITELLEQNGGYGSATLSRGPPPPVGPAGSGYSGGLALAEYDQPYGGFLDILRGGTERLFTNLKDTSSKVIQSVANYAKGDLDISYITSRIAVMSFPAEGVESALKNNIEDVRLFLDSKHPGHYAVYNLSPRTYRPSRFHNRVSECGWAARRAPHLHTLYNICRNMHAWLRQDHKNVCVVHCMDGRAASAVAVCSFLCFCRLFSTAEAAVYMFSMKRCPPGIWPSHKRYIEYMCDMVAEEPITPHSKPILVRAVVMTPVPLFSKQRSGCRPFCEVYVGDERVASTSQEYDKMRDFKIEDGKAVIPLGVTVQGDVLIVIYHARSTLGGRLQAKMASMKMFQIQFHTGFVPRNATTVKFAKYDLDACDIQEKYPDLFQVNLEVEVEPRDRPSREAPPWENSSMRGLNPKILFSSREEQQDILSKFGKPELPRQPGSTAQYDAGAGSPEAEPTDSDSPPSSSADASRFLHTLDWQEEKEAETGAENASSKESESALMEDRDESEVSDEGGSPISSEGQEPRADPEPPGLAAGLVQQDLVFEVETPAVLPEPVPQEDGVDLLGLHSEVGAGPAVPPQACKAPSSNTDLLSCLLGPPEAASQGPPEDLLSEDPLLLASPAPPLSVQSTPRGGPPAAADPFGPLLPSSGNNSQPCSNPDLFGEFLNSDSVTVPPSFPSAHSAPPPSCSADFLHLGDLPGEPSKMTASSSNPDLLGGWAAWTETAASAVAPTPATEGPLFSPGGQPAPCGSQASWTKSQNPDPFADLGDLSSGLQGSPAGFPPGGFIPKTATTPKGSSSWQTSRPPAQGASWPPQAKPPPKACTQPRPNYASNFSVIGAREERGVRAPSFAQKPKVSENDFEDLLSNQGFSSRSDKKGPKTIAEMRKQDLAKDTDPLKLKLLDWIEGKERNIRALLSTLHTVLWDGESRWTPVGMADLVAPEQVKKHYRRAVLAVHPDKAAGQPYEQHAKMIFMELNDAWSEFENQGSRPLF

Turning to `C=CC(=O)N1CC[C@H](Nc2nccc(Nc3ncc(C(=O)Nc4c(C)cccc4C)s3)n2)C1` [Example I-3], the “% change of MS signal compared to control sample” value (from here on “% change of MS signal”) at kinases in BCWM.1 cells [1] came out at 23.5%.
For `CCC(=O)N1CC[C@H](Nc2nccc(Nc3ncc(C(=O)Nc4c(C)cccc4C)s3)n2)C1` [Example I-9], the “% change of MS signal” value was −51.4% and −48.7% on kinases in BCWM.1 cells [2]; 1.2% and 3.4% at kinases in BCWM.1 cells [3]; −6.4% and −4.8% on kinases in BCWM.1 cells [4]; −4.9% and 0.5% on kinases in BCWM.1 cells [5]; 61.6% and 82.8% on kinases in BCWM.1 cells [6]; −3.2% and 6.2% on kinases in BCWM.1 cells [7]. Moreover, the “% change of MS signal” value at kinases in BCWM.1 cells [8] was −13.4% and −5%; on kinases in BCWM.1 cells [9] it was −22% and −18.5%; on kinases in BCWM.1 cells [10], 7% and −1.8%; at kinases in BCWM.1 cells [11], 26.2% and 15.2%; on kinases in BCWM.1 cells [12] (Lys1), −1.9% and 1.2%; on kinases in BCWM.1 cells [12] (Protein Kinase Domain), 24.5% and 12.4%. In addition, the “% change of MS signal” value on kinases in BCWM.1 cells [13] was −1.9% and −1.4%; at kinases in BCWM.1 cells [14], −16.2% and −8.3%; on kinases in BCWM.1 cells [15], −26.4% and −21.7%; on kinases in BCWM.1 cells [16], 0.4% and −1.4%; at kinases in BCWM.1 cells [17] it was 5.7% and 15.3%; at kinases in BCWM.1 cells [18] it was 6.5%. Moreover, the “% change of MS signal” value at kinases in BCWM.1 cells [19] is −18.3% and −12.9%; at kinases in BCWM.1 cells [20], −22.8% and −23.9%; on kinases in BCWM.1 cells [21], −10.4%; on kinases in BCWM.1 cells [22], 15.8%; at kinases in BCWM.1 cells [23], −37.3% and −40.3%; on kinases in BCWM.1 cells [24], −20.8%. Further, the “% change of MS signal” value is 33.8% at kinases in BCWM.1 cells [25]; −11.2% and −3.9% on kinases in BCWM.1 cells [26]; 16.9% and 25.3% on kinases in BCWM.1 cells [27]; 93.7% and 95.4% on kinases in BCWM.1 cells [28]; −8.4% on kinases in BCWM.1 cells [29]; 3.2% and 10.9% on kinases in BCWM.1 cells [30].
